Experimental data taken from patent US20160129034A1, “COMBINATION OF RO5503781, CAPECITABINE AND OXALIPLANTIN FOR CANCER THERAPY” (HOFFMANN-LA ROCHE INC., priority 2013, published 2016).

Tested on: LoVo cell line
Experiment: LoVo colorectal xenograft in mice: tumor growth inhibition and survival
Format: in vivo
Details: for % Inhibition (EOS) / % T/C (EOS): end of study; for Mean Tumor Volume: in mm³ (unit assumed)
Method: The LoVo cell line was selected for implantation in mice as it is has activation of the p53-MDM2 pathway but lacks MDM2 amplification or overexpression, which therefore is felt to be more reflective of clinical reality of the colorectal cancer patient population of interest.
Compound A and the capecitabine/oxaliplatin formulations were as follows. If not explicitly indicated otherwise, the amounts provided below are concentrations [mg/ml]. Compound A is used at concentrations of 10 mg/ml and 12.5 mg/ml. Capecitabine is used at concentrations of 12.5 mg/ml, 25 mg/ml and 50 mg/ml. Oxaliplatin is dosed at 5 mg/kg. The vehicle solutions for compound A and capecitabine are as follows:
The following treatment groups were used in the study • 1. Vehicle Control qd×5 po+qd×14 po • 2. Compound A 80 mg/kg qd×5 po • 3. Compound A 100 mg/kg qweekly×3 po • 4. Capecitabine 200 mg/kg qd×14 po • 5. Oxaliplatin 5 mg/kg qweekly ip×2 • 6. Capecitabine 200 mg/kg qd×14po+Oxaliplatin 5 mg/kg qweekly ip×2 • 7. Compound A 80 mg/kg qd×5+Capecitabine 200 mg/kg qd×14 • 8. Compound A 100 mg/kg qweekly×3+Capecitabine 200 mg/kg qd×14 • 9. Compound A 80 mg/kg qd×5+Capecitabine 200 mg/kg qd×14+Oxaliplatin 5 mg/kg qweekly ip×2 • 10. Compound A 100 mg/kg qweekly×3+Capecitabine 200 mg/kg qd×14+Oxaliplatin 5 mg/kg qweekly ip×2

[1] = Oxaliplatin 5 mg/kg qweeklyx2 ip
[2] = Capecitabine 200 mg/kg qdx14 po

COc1cc(C(=O)O)ccc1NC(=O)[C@@H]1N[C@@H](CC(C)(C)C)[C@](C#N)(c2ccc(Cl)cc2F)[C@H]1c1cccc(Cl)c1F [Cpd. A, 4-{[(2R,3S,4R,5S)-4-(4-Chloro-2-fluoro-phenyl)-3-(3-chloro-2-fluoro-phenyl)-4-cyano-5-(2,2-dimethyl-propyl)-pyrrolidine-2-carbonyl]-amino}-3-methoxy-benzoic acid]
% Increased Life Span (Cpd A 80 mg/kg qdx5 po): 21% | % Inhibition (EOS) (Cpd A 80 mg/kg qdx5 po): 64% | % T/C (EOS) (Cpd A 80 mg/kg qdx5 po): 38% | Mean Tumor Volume (Cpd A 80 mg/kg qdx5 po): 130.73 | % Increased Life Span (Cpd A 100 mg/kg qwklyx3 po): 21% | % Inhibition (EOS) (Cpd A 100 mg/kg qwklyx3 po): 60% | % T/C (EOS) (Cpd A 100 mg/kg qwklyx3 po): 40% | Mean Tumor Volume (Cpd A 100 mg/kg qwklyx3 po): 130.23

O=C(O)C(=O)O.[NH-][C@@H]1CCCC[C@H]1[NH-].[Pt+2] [Oxaliplatin]
% Increased Life Span [1]: 0% | % Inhibition (EOS) [1]: 23% | % T/C (EOS) [1]: 77% | Mean Tumor Volume [1]: 130.60

CCCCCOC(=O)Nc1nc(=O)n([C@@H]2O[C@H](C)[C@@H](O)[C@H]2O)cc1F [Capecitabine, 5′-deoxy-5-fluoro-N-[(pentyloxy)-carbonyl]-cytidine]
% Increased Life Span [2]: 36% | % Inhibition (EOS) [2]: 75% | % T/C (EOS) [2]: 25% | Mean Tumor Volume [2]: 129.07
